Data: PMC9741287, “Cytotoxic and Luminescent Properties of Novel Organotin Complexes with Chelating Antioxidant Ligand” (Molecules, 2022)
Where “and” joins values, the source holds several entries; their conditions need not be identical. Equal entries are not always repeated.

How the values were obtained:
[1] = tested on: HCT116 (human colorectal carcinoma); test: MTT-test HCT116; format: cell-based
Procedure: (§1) Since the investigated compounds are designed as theranostic and cytostatic agents, their toxic impact was evaluated as a standard MTT-test. Cytotoxicity was studied on four cell lines, i.e.,—HCT116 (human colorectal carcinoma), MCF-7 (human breast cancer), A549 (human lung adenocarcinoma), and WI-38 (human fetal lung fibroblast). Obtained results appear to be unorthodox: as it is known, the introduction of an organotin moiety tends to noticeably increase compounds’ toxicity and more lipophilic ones do it better, but in the presented data pattern turns vice versa (Table 3).
(§2) HCT-116 (colon carcinoma), MCF-7 (breast adenocarcinoma), A-549 (lung adenocarcinoma) cell lines, and WI-38 (cell line composed of fibroblasts) were derived from The European Collection of Authenticated Cell Cultures (ECACC, Salisbury, UK), cultured in DMEM medium (Gibco™, Dublin, Ireland) supplemented with 10% fetal bovine serum (Gibco™, Brasilia, Brazil). The cells were cultured in an incubator at 37 °C in a humidified 5% CO2 atmosphere and subcultured two times a week.
(§3) The toxicity of compounds was studied on cultured cell lines according to standard MTT protocol.

[2] = tested on: superoxide radical anion O2−• (xanthine-xanthine oxidase system); test: NBT-test, superoxide generated in the xanthine-xanthine oxidase system; format: biochemical; conditions: for I (NBT-Test): 0.006 mL of 5 mM compound in DMSO per 0.3 mL well, 600 s, 560 nm, negative = stimulation
From the text: Xanthine oxidase is molybdenum containing enzyme responsible for purine catabolism in the human organism. It is capable of xanthine oxidation, resulting in uric acid and superoxide radical anion as a side product. The latter one is well-known ROS, and the ability to neutralize it marks the compound as a perspective antioxidant. This is followed by the interaction of O2^−• and nitro-blue tetrazolium resulting in the cycle opening (Scheme 4), which is accompanied by the color change with λmax = 560 nm and can be monitored spectrophotometrically.
The influence of compounds on superoxide radical anion О2^−• generated in the enzymatic system xanthine-xanthine oxidase was estimated as the amount of nitro-blue tetrazolium (NBT) reduced to formazan. The assay was carried out in 96-well plates. The total volume of a single well was 0.3 mL and consisted of 0.27 mL of carbonate buffer (40 mM, pH 10.0) containing EDTA (0.1 mM), 0.006 mL of xanthine (10 mM) in carbonate buffer, 0.003 mL of 0.5% bovine serum albumin in water, 0.003 mL of NBT chloride (2.5 mM) in water, and 0.006 mL of a solution of the studied compound in DMSO (5 mM). Xanthine oxidase (0.012 mL, 0.004 units) in buffer was added to the mixture at rt to start the reaction and the absorption at λmax = 560 nm was recorded for 600 s. The control experiment was performed in the presence of 0.006 mL DMSO without a compound. All experiments were performed in triplicate.
Inhibition was expressed by the Equation (2):I (%) = (ν0/ν0′) × 100%,(2) where v0 and v0′ are initial rates of the enzymatic reaction in the presence and absence (control) of the compounds under study, respectively.
The initial rate (v0 and v0′) was calculated by the Equation (3):ν0 = ΔС/Δt = ΔA/(Δt × ε) = tgα/(Δt × ε),(3)
A1 is the absorbance in the presence of the testing compound at the end of the reaction (600 s), and A0 is the absorbance of the blank solution. ΔA is the difference between A1 and A0. All experiments were performed in triplicate.

[3] = tested on: WI-38 (human fetal lung fibroblast); test: MTT-test WI-38; format: cell-based
Procedure: as §1, §2, §3

[4] = tested on: A549 (human lung adenocarcinoma); test: MTT-test A549; format: cell-based
Procedure: as §1, §2, §3

[5] = Luminescence / photophysical properties; format: physicochemical; conditions: for Quantum Yield, DMSO Solution 10 µM / Quantum Yield, DMSO Solution 100 µM / Quantum Yield, DMSO Solution 1000 µM / Quantum Yield, Powders: λex = 365 nm; for ε (λmax): at absorption λmax; for Luminosity (λmax): at λmax; for Quantum Yield, Powders: solid (compound 4 is an oil)
Procedure: Their quantum yields reached 20%, which together with their high absorption (Table 4) makes them highly emissive even in powders.
The registration of luminescence spectra of powders and solutions in the visible range as well as the measurement of quantum yields were carried out with Horiba FluoroMax Plus, with xenon lamp as excitation source at room temperature; excitation was performed through a ligand (λex = 365 nm). The quantum yield was measured by the absolute method in the integrating sphere.

[6] = DPPH-test (radical scavenging); conditions: for Quantity of Reduced DPPH after 20 h: DPPH 0.2 mM + test compound 0.2 mM in EtOH, equal volumes, 517 nm
From the text: 2,2-Diphenyl-1-picrylhydrazyl (DPPH)—is a stable N-centered chromophore radical with absorption peak λmax = 517 nm, while its reduced form is pale yellow. Its reduction can be monitored spectrophotometrically and is a well-known and convenient way of evaluating radical scavenging activity. […] This may be caused by the participation not of only the sterically hindered phenolic group in the process of radical scavenging, but salicylic phenolic group and probably hydrazide fragment as well. The abovementioned structural moieties participate in the coordination of tin atoms, and therefore are excluded from the mechanism of antioxidant action of complexes. […] The introduction of tin is known to lower the radical scavenging capacity of corresponding ligands and is estimated as referred previously. The only exception is complex 7, bearing two 2,6-di-tert-butylphenols pendants attached directly to the tin.
The activity of synthesized compounds as radical scavengers was estimated spectrophotometrically at λmax = 517 nm using stable radical 2,2-diphenyl-1-picrylhydrazyl (Sigma-Aldrich) according to the known procedure. The reaction mixture contained DPPH (0.75 mL, 0.2 mM) and a solution of the test compound in EtOH (0.75 mL, 0.2 mM), and was put in 1 cm glass cuvettes. The measurements were carried out for 20 h and the results were calculated using Microsoft Excel 2010. Antioxidant activity was expressed as the percentage of reduced DPPH according to the Equation (1):I (%) = ((A0 − A1)/A0) × 100(1) where A0 is the absorbance of the control 0.1 mM DPPH in EtOH, ε DPPH = 1.15·× 10^4, and A1 is the absorbance of the reaction mixture in the presence of the test compound.

[7] = tested on: MCF-7 (human breast cancer); test: MTT-test MCF-7; format: cell-based
Procedure: as §1, §2, §3

CC(C)(C)c1cc(C2=NN=Cc3ccccc3[O][Sn]([c]3cc(C(C)(C)C)c(O)c(C(C)(C)C)c3)([c]3cc(C(C)(C)C)c(O)c(C(C)(C)C)c3)[O]2)cc(C(C)(C)C)c1O [Compound 7, (2,6-Di-tert-butylphenol)2SnL]
IC50 [1]: 20.5 ± 6.4 µM
O2−• scavenging in NBT-test [2]: stimulate O2^−· formation instead of inhibiting it
I (NBT-Test) [2]: −40.5 ± 4.2%
IC50 [3]: 10.6 ± 3.5 µM
IC50 [4]: 31.9 ± 5.7 µM
λmax (absorption) [5]: 402 nm
Quantum Yield, DMSO Solution 10 µM [5]: 21 ± 2%
Quantum Yield, DMSO Solution 100 µM [5]: 42 ± 1%
Quantum Yield, DMSO Solution 1000 µM [5]: 32 ± 2%
ε (λmax) [5]: 13,270 M^−1·cm^−1
Luminosity (λmax) [5]: 557,340, (402) M^−1·cm^−1
Quantum Yield, Powders [5]: 20% and 20 ± 2%
Luminosity (λ = 365 nm) [5]: 294,084 M^−1·cm^−1
ε (λ = 365 nm) [5]: 7002 M⁻¹ cm⁻¹
EC50 [6]: 12.8 µM
IC50 [7]: 32.7 ± 9.5 µM

C[CH2][Sn]1([CH2]C)[O]C(c2cc(C(C)(C)C)c(O)c(C(C)(C)C)c2)=NN=Cc2ccccc2[O]1 [Compound 3, Et2SnL]
IC50 [1]: 1.4 ± 0.5 µM
I (NBT-Test) [2]: 7.3 ± 2.0%
IC50 [3]: 5.8 ± 1.5 µM
IC50 [4]: 1.5 ± 0.5 µM
λmax (absorption) [5]: 410 nm
Quantum Yield, DMSO Solution 10 µM [5]: 17 ± 2%
Quantum Yield, DMSO Solution 100 µM [5]: 45 ± 1%
Quantum Yield, DMSO Solution 1000 µM [5]: 30 ± 2%
ε (λmax) [5]: 14,020 M^−1·cm^−1
Luminosity (λmax) [5]: 658,940, (410) M^−1·cm^−1
Quantum Yield, Powders [5]: 14 ± 2%
Luminosity (λ = 365 nm) [5]: 210,983 M^−1·cm^−1
ε (λ = 365 nm) [5]: 4489 M⁻¹ cm⁻¹
Quantity of Reduced DPPH after 20 h [6]: 41.3 ± 2.1%
IC50 [7]: 3.7 ± 0.5 µM

CC(C)(C)c1cc(C2=NN=Cc3ccccc3[O][Sn]([c]3ccccc3)([c]3ccccc3)[O]2)cc(C(C)(C)C)c1O [Compound 6, Ph2SnL]
IC50 [1]: 20 ± 11 µM
O2−• scavenging in NBT-test [2]: stimulate O2^−· formation instead of inhibiting it
I (NBT-Test) [2]: −28.0 ± 3.6%
IC50 [3]: 52.6 ± 14.6 µM
IC50 [4]: 20.2 ± 4 µM
λmax (absorption) [5]: 393 nm
Quantum Yield, DMSO Solution 10 µM [5]: 25 ± 2%
Quantum Yield, DMSO Solution 100 µM [5]: 67 ± 2%
Quantum Yield, DMSO Solution 1000 µM [5]: 26 ± 2%
ε (λmax) [5]: 13,450 M^−1·cm^−1
Quantum Yield, Powders [5]: 6 ± 2%
Luminosity (λ = 365 nm) [5]: 333,370 M^−1·cm^−1
ε (λ = 365 nm) [5]: 9010 M⁻¹ cm⁻¹
Quantity of Reduced DPPH after 20 h [6]: 47.4 ± 2.7%
IC50 [7]: 26.3 ± 3.5 µM
